In patent publication US20200247897A1, “THERAPEUTIC ANTIBODIES BASED ON MUTATED IGG HEXAMERS” (GENMAB B.V., priority 2017, published 2020):

System: colon, pancreatic, gastric, lung and skin cancer cell lines
Test: 3-days CellTiter-Glo viability assay, panel of different human cancer cell lines
Type: cell-based
Settings: 133 nM; 11 cell lines (Example 41)

TRAIL: natural DR5 ligand, recombinant human TRAIL/APO-2L
killing of human cancer cell lines: show killing of human cancer target cell lines originating from different indications
